For one assay, the target named is hGSTP1-1 (Homo sapiens, UniProt P09211). Briefly: Specific activity / enzyme kinetics of GST towards compounds in presence of GSH. Type of assay: biochemical. The settings on record: compound 50 µM, 37 °C.
In the next assay the target is T1, hGSTA1-1 (Homo sapiens, UniProt P08263).
T1 sequence (P08263 1-222): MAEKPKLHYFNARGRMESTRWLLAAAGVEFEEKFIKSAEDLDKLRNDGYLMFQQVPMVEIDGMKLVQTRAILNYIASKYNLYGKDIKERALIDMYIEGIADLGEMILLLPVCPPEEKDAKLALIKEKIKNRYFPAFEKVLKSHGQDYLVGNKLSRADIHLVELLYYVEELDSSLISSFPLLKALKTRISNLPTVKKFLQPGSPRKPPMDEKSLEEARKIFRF
Described as above. It is filed as biochemical. Particulars: compound 50 µM, 37 °C.

The target of a further assay is T2, hGSTM1-1 (Homo sapiens, UniProt P09488).
T2 sequence (P09488 2-218 limits assumed): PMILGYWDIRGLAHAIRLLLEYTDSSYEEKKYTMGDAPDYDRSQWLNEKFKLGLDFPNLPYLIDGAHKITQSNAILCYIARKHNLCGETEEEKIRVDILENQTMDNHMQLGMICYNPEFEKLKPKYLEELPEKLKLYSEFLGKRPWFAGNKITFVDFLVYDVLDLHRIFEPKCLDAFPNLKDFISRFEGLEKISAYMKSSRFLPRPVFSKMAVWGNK
The description is as above. It is filed as biochemical. The settings on record: compound 50 µM, 37 °C.

For a further assay, the system named is HL-60 cells. As to the kind of experiment: MTT cell proliferation assay. The settings on record: Homo sapiens, HL-60, 72 h, read-out: IC50 anti-proliferative activity. It is filed as cell-based. (Tetrazolium assays rely on reduction of a dye to a coloured formazan, in cell work by metabolically active cells.)

By IC50 is commonly meant the concentration at which inhibition is half-maximal.

Sequence of hGSTP1-1 (P09211 2-210 limits assumed): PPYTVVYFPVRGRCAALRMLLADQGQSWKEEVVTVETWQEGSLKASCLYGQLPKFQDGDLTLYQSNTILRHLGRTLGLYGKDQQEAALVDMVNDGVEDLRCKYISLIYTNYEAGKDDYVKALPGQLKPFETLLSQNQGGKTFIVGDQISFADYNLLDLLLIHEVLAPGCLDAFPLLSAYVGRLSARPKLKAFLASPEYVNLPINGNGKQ

Turning to `CCOC(=O)N1CCN(/[N+]([O-])=N/Oc2ccc([N+](=O)[O-])cc2[N+](=O)[O-])CC1C` (stereo not shown) [3a, O^2-(2,4-Dinitrophenyl) 1-[(4-Ethoxycarbonyl)-3-methylpiperazin-1-yl]diazen-1-ium-1,2-diolate], the GSTP1-1 specific activity at hGSTP1-1 was determined as 1.15 µmol/mg/min. Further, at hGSTA1-1, the GSTA1-1 specific activity worked out at 55.5 µmol/mg/min. The GSTM1-1 specific activity on hGSTM1-1 turned out to be 112 µmol/mg/min.
For `CCOC(=O)N1CCN(/[N+]([O-])=N/Oc2ccc([N+](=O)[O-])cc2[N+](=O)[O-])C(C)C1` (stereo not shown) [3b, O^2-(2,4-Dinitrophenyl) 1-[(4-Ethoxycarbonyl)-2-methylpiperazin-1-yl]diazen-1-ium-1,2-diolate] the same measures were 0.88 µmol/mg/min, 47.0 µmol/mg/min and 110 µmol/mg/min.
For `CCOC(=O)N1C(C)CN(/[N+]([O-])=N/Oc2ccc([N+](=O)[O-])cc2[N+](=O)[O-])CC1C` (stereo not shown) [3c, O^2-(2,4-Dinitrophenyl) 1-[(4-Ethoxycarbonyl)-3,5-dimethylpiperazin-1-yl]diazen-1-ium-1,2-diolate] the same measures were 1.17 µmol/mg/min, 70.3 µmol/mg/min and 172 µmol/mg/min.
For `CCOC(=O)N1CC(C)N(/[N+]([O-])=N/Oc2ccc([N+](=O)[O-])cc2[N+](=O)[O-])CC1C` (stereo not shown) [3d, O^2-(2,4-Dinitrophenyl) 1-[(4-Ethoxycarbonyl)-2,5-dimethylpiperazin-1-yl]diazen-1-ium-1,2-diolate], in that order: 0.14 µmol/mg/min, 17.6 µmol/mg/min and 49 µmol/mg/min.
With `CCOC(=O)N1CCCN(/[N+]([O-])=N/Oc2ccc([N+](=O)[O-])cc2[N+](=O)[O-])CC1` [4a], the GSTP1-1 specific activity at hGSTP1-1 amounted to 0.16 µmol/mg/min. In addition, the GSTA1-1 specific activity on hGSTA1-1 is 16.8 µmol/mg/min. At hGSTM1-1, the GSTM1-1 specific activity worked out at 38 µmol/mg/min.
As for `COC(=O)N1CCN(/[N+]([O-])=N/Oc2ccc([N+](=O)[O-])cc2[N+](=O)[O-])CC1` [4b], the GSTP1-1 specific activity on hGSTP1-1 worked out at 0.98 µmol/mg/min. For the same molecule, the GSTA1-1 specific activity at hGSTA1-1 worked out at 45.1 µmol/mg/min. Moreover, the GSTM1-1 specific activity on hGSTM1-1 was found to be 102 µmol/mg/min.
For `CCCOC(=O)N1CCN(/[N+]([O-])=N/Oc2ccc([N+](=O)[O-])cc2[N+](=O)[O-])CC1` [4c], in that order: 1.2 µmol/mg/min, 59.0 µmol/mg/min and 126.3 µmol/mg/min.
As to `CCOC(=O)N1CCN(/[N+]([O-])=N/Oc2ccc([N+](=O)[O-])cc2[N+](=O)[O-])CC1` [JS-K, O^2-(2,4-dinitrophenyl) 1-[(4-ethoxycarbonyl)piperazin-1-yl]diazen-1-ium-1,2-diolate], the GSTP1-1 specific activity on hGSTP1-1 turned out to be 1.36 µmol/mg/min. Further, the GSTA1-1 specific activity at hGSTA1-1 stood at 66.3 µmol/mg/min. For the same molecule, the GSTM1-1 specific activity at hGSTM1-1 was found to be 126 µmol/mg/min. Also, the IC50 in the assay with HL-60 cells is 200 to 500 nM.

(Values after paper PMC2631660 (Bioorganic & medicinal chemistry, 2008).)
